According to US20200108032A1, “USE OF ISOFERULIC ACID, ISOFERULIC ACID-CONTAINING TRADITIONAL CHINESE MEDICINE EXTRACT AND CIMICIFUGAE RHIZOMA” (BEIJING DITAN HOSPITAL, CAPITAL MEDICAL UNIVERSITY, priority 2017, published 2020):

Assays:
Assay type in all cases: in vivo, C57BL/6 mice
[1] = system: joint tissue cytokines IL-9, IL-18 and MIP-2; assay: Joint tissue cytokines in CIA arthritis mice (multi-factor detection); conditions: MEAN ± SEM
Text: (§1) Test materials and animals: Consistent with Experimental Example 3. Anti-type II collagen antibody ELISA kit was purchased from Chondrex, Cytokine & Chemokine 36-Plex Mouse ProcartaPlex™ Panel 1A cytokine and chemokine detection kit was purchased from ThermoFisher.
(§2) Model preparation and drug administration: the drug dosage of each treatment group was the same as that of Experimental Example 3. After 21 days of the second immunization, the mice were anesthetized.
(3) The effects of each drug group on cytokine secretion in serum and joint tissues of CIA mice were measured. Seven mice from each group were examined; peripheral blood was collected and separated from serum. Cytokines in serum were detected by multiple factors: IFN-γ, IL-6, IL-9, IL-12, IL-17A, IP-10, MCP-1, MCP-3. MIP-1α, MIP-1β, Eotaxin, and G-CSF; the right hind limb knees, joints and claws were taken and stored in liquid nitrogen for quick freezing, then homogenized and extracted protein. Multi-factor detection of cytokines in tissues: IL-9, IL-18 and MIP-2 secretion.

[2] = system: mouse model of ConA hepatitis; assay: Survival rate of hepatitis mouse model of ConA; conditions: ConA 25 mg/kg i.v.; drug by gavage (compatibility 7 g/kg, Cimicifugae rhizoma 2 g/kg, total phenolic acid 300 mg/kg crude drug, isoferulic acid 5 mg/kg); observed at 96 h; model group 20%
Text: Test materials: ConA was purchased from Sigma; isoferulic acid was purchased from Tianjin Fangfang Technology Co., Ltd.
Animals: C57BL/6 mice, purchased from Beijing Huafukang Biotechnology Co., Ltd.
Grouping: 50 C57BL/6 mice, male, 18-20 g, after 1 day of adaptive breeding, the mice were randomly divided into 5 groups of 10 in each group: ConA model group, Cimicifugae rhizoma compatibility group, Cimicifugae rhizoma group, Cimicifugae rhizoma total phenolic acid group and isoferulic acid group.
Model preparation and drug administration: 150 mg of ConA powder were weighed and dissolved in 40 mL of sterile PBS and left at room temperature for 1 to 2 hours; the solution was intermittently shaken gently to mix well. Low temperature ultrasound promoted dissolution (no more than 5 min each time) and avoided excessive foaming. After the solution was fully dissolved, the volume was adjusted to 50 mL, prepared to a concentration of 3 mg/mL, and filtered under pressure with a 0.45 μm filter. Mice were given a single intravenous injection at 25 mg/kg, with 100 μL per mouse. […]

[3] = system: anti-type II collagen antibody; assay: Serum anti-type II collagen antibody content in CIA mice (ELISA); conditions: 21 days after second immunization
Text: as §1, §2
(2) The effects of each drug group on the anti-type II collagen antibody content in the serum of CIA mice were measured. Seven mice from each group were examined; peripheral blood was collected and separated from serum. Anti-type II collagen antibodies were detected with Elisa.

CIA arthritis mice = assay: Micro-CT of joint structure / bone damage in CIA mice; conditions: 21 days after second immunization, MEAN ± SEM
Text: as §1, §2
(1) Micro-CT technology was used to examine the effect of each drug group on the joint structure of CIA mice. After taking 3 mice from each group, the right hind limbs were taken immediately after neck dissection and fixed in 4% neutral formalin. After 2-3 days of fixation, a micro-CT scan was performed using a live animal imaging system. Extraction site: extracted the data of the area above the tibial plaque plate of the right hind limb of the mouse. 3 sets of data were taken. Size selection: the upper part of the tibial plaque plate (0.25*0.25*0.25); measurement indicators of the extracted bones: bone density, bone volume, bone volume fraction and number of bone trabeculae.

Body weight of CIA mice = conditions: day 21 of the second immunization; MEAN ± SEM
Text: The test materials and animals were the same as those in Experimental Example 3.
Model preparation and administration: same as in Experimental Example 3. On day 21 of the second immunization, the mice were weighed.

[4] = system: granulocytes and NK cells; assay: Proliferation (Ki-67) of granulocytes and NK cells in CIA arthritis mice (flow cytometry); conditions: intracellular Ki-67 expression; 21 days after second immunization; MEAN ± SEM
Text: Test materials and animals: CD3-PerCP, NK1.1-APC antibody, Ki67-PE antibody, Intracellular Fixation & Permeabilization Buffer Set were purchased from eBioscience; CD48 PE, CD11b FITC and B220-FITC antibodies were purchased from BD Pharmingen company; other required reagents were the same as in Example 7.
Model preparation and drug administration: the administration dose of each treatment group was the same as that of Experimental Example 3. 21 days after the second immunization, the mice were anesthetized.
Animal: C57BL/6 mice, purchased from Beijing Huafukang Biotechnology Co., Ltd.
The proliferation capacity of the spleen Ki-67 expression response cell was detected by flow cytometry. Two tubes of spleen single cell suspension were prepared and used to detect the proliferation of CD48^−CD11b^+ positive granulocytes and CD3^−NK1.1^+B220^−NK cells.
The surface staining procedure was the same as in Experimental Example 7.
Intracellular staining: after surface staining, intracellular staining was performed: 1) added 100 μL of fixed membrane-breaking solution Fixation Buffer, protected it from light at room temperature, fixed the membrane for 40 min; 2) added 1 mL of Permeabilization Buffer and washed twice, discarded the supernatant 3) added 1 μL of Ki-67-PE antibody at room temperature and protected it from light for 40 min; 4) same as step 2); and 5) used flow cytometer BD Calibar to measure the percentages of intracellular Ki-67 expression in CD48^−CD11b+ positive granulocytes, and CD3^−[…]B220^−NK cells, respectively.

COc1ccc(C=CC(=O)O)cc1O [isoferulic acid, 3-hydroxy-4-methoxycinnamic acid]
Joint tissue IL-9 [1]: 3.2 ± 1.5 pg/mg | Joint tissue IL-18 [1]: 111.1 ± 125 pg/mg | Joint tissue MIP-2 [1]: 61.2 ± 45.8 pg/mg | survival rate of mice [2]: 60% | Anti-type II collagen antibody [3]: 9610 ± 664 Units/ml | Bone density (CIA arthritis mice; area above tibial plate of right hind limb): 9.5 ± 1.5 mg/cc | Bone volume (CIA arthritis mice; right hind limb): 0.0014 ± 0.0005 mm 3 | Bone volume fraction (CIA arthritis mice; right hind limb): 0.095 ± 0.034 | number of trabeculae (CIA arthritis mice; right hind limb): 2.042 ± 0.572 1/mm | Body weight (Body weight of CIA mice): 21.6 ± 0.4 g | Proliferation of Granulocytes, bone marros [4]: 27.8 ± 8.2 % | Proliferation of Granulocytes, spleen [4]: 26.8 ± 12.5 % | Proliferation of NK cells, spleen [4]: 14 ± 9 %
